According to article PMC8296708, “The pan HDAC inhibitor Givinostat improves muscle function and histological parameters in two Duchenne muscular dystrophy murine models expressing different haplotypes of the LTBP4 gene” (Skeletal Muscle, 2021):

What was measured:
mdx mice [1] = assay: Muscle fibrosis by Sirius Red staining in mdx mice; assay type: in vivo, mouse (C57BL/10ScSn-Dmd^mdx/J)
Text: (§1) Tibialis anterior (TA), gastrocnemius (GAS), DIA, and heart were collected from mice maintained under isoflurane anesthesia and sacrificed by cervical dislocation. These muscles were collected from C57BL/10J wt and mdx (5 mice/group) at the end of treatments and from DBA/2J wt and D2.B10 mice (5 mice/group) at two different time points to be examined by a pathologist (for more details see Additional Table 1). Due to the results obtained by the functional tests, muscles from only some treatment groups were analyzed in both DMD models (see Additional Table 1). All the collected muscles were fixed in 10% buffered formalin solution (Bio-optica, Milan, Italy) at + 4 °C for at least 48 h. After fixation, muscular samples were transversely trimmed, caged, and paraffin embedded overnight with an Automated Vacuum Tissue Processor Floor (ETP, Histo-Line Laboratories) and included in paraffin blocks. Serial transverse cross-sections (4 μm thick) were cut with a microtome (Leica RM 2255), collected onto uncoated glass slides, and stained using a standard protocol for hematoxylin and eosin (Mayer hematoxylin & Aqueous G Eosin 1%, Bio-Optica) and Sirius Red staining (Direct Red 80, Sigma-Aldrich). For the image analysis and quantitation, hematoxylin and eosin- and Sirius Red-stained slides were examined with an Olympus BX51 light microscope. From each sample, 1 to 3 random microphotographs at the magnification of × 4 and × 10 (TA, GAS and heart) or × 20 (DIA) were collected using Image-Pro Plus system. The digital images were processed by a pathologist using ImageJ software (U.S. National Institutes of Health, Bethesda, MD, USA). To quantify CSA and centralized nuclei (%) on hematoxylin and eosin-stained sections, one hundred myofibers were manually measured for each muscle/mouse using a tablet pen (Wacom Intruos) and analyzed by the ImageJ software after a linear calibration of 150 μm. The fibrotic area, corresponding to the area stained in red, was compared to the total area of the tissue section, and the results were expressed as percentage fibrosis. The % of fibrosis of muscles in the different treatment groups was expressed by averaging the three values obtained from each muscle.

mdx mice [2] = assay: Centralized nuclei (%) in muscles of mdx mice; assay type: in vivo, mouse (C57BL/10ScSn-Dmd^mdx/J); settings: T16
Text: as §1

For `CCN(CC)Cc1ccc2cc(COC(=O)Nc3ccc(C(=O)NO)cc3)ccc2c1` [Givinostat], the “Reduction of fibrosis in GAS” value (mdx mice [1]; 10 and 37.5 mg/kg, T16, vs vehicle) was “about 30%”, the “Effect on fibrosis in TA” value (mdx mice [1]; T16, doses 1, 10, 37.5 mg/kg analyzed) was “observed only at the dose of 37.5 mg/kg” and the “Reduction of fibrosis in DIA” value (mdx mice [1]; all 3 analyzed doses (1, 10, 37.5 mg/kg), T16) was “about 40%”. The “Effect on fibrosis in heart” value (mdx mice [1]; all 3 doses analyzed, T16, vs vehicle) was “the effect was not significant”, the “Nuclear centralization in DIA” value (mdx mice [2]; 1 mg/kg) was 57 ± 2.9% and the “Nuclear centralization in GAS” value (mdx mice [2]; 1 mg/kg) was 67.6 ± 2.4%. For the same molecule, the “Nuclear centralization in TA” value (mdx mice [2]; 1 mg/kg) was 71 ± 1.6%, the “Nuclear centralization in DIA” value (mdx mice [2]; 10 mg/kg) was 61.4 ± 3.5% and the “Nuclear centralization in GAS” value (mdx mice [2]; 10 mg/kg) was 58 ± 3%. For the same molecule, the “Nuclear centralization in TA” value (mdx mice [2]; 10 mg/kg) was 73.2 ± 3.7%, the “Nuclear centralization in DIA” value (mdx mice [2]; 37.5 mg/kg) was 41.4 ± 4.5% and the “Nuclear centralization in GAS” value (mdx mice [2]; 37.5 mg/kg) was 61.3 ± 3.8%. The “Nuclear centralization in TA” value (mdx mice [2]; 37.5 mg/kg) was 60.8 ± 2.5%.
